Laboratory results from patent US11802259B2, “Process of reducing malodors on fabrics” (The Procter & Gamble Company, priority 2019, dated 2023).

Test: Malodor Reduction Test Method (wash of body soil malodor test fabrics, SPME GC-MS of oxidation markers)
Details: antioxidant at 0.035 wt % in detergent
Experimental: The following method is used to test the malodor reduction benefits of a composition.
Fatty acids and malodor markers are added into 100 ml glass gar with Teflon-lined cap according to Table A and mixed well using a vortex.
Provided the specified amount of each material according to Table B into a 200 mL glass jar with Teflon lined cap. Artificial body soil (ABS) is commercially available by Accurate Product Development; 2028 Bohlke Blvd, Fairfield, Ohio 45014.
Sixteen malodor test fabrics per wash load are prepared by applying 300 μl of Body soil malodor composition described in Table B to de-sized 2×5 inch white polycotton 50/50 (PCW50/50) swatches. 48 grams of liquid detergent to be tested (see, e.g., Example 1, Table 1, below) is added to Duet 9200 washing appliance set to Normal cycle; 77° F. wash cycle followed by a 60° F. rinse cycle. […]
The malodor reduction using ABS/Squalene malodor sensors are quantitatively determined by Gas Chromatography Mass Spectroscopy using an Agilent gas chromatograph 7890B equipped with a mass selective detector (5977B), a Chemstation quantitation package and a Gerstel multi-purpose sampler equipped with a solid phase micro-extraction (SPME) probe. […] Based on the partition coefficients (K at 80 C) of each component, the total nMol/L liter of 6-Methyl-5-hepten-2-one (K=3353), Trans-2-heptenal (K=3434), and 3-methyl-2-Butenal (K=1119) are calculated. […]

For `Cc1c(C)c2c(c(C)c1O)CCC(C)(C(=O)O)O2` (stereo not shown) [Antioxidant 7, 3,4-dihydro-6-hydroxy-2,5,7,8-tetramethyl-2H-1-Benzopyran-2-carboxylic acid], the “malodor reduction benefits (reduction in total oxidation markers)” value was “did not provide benefits”.
